Assay results from US8742102B2, “Process for enantiomeric separation of racemic dihydro-1,3,5 triazines via preferential crystallization” (Poxel, priority 2009, dated 2014).

Experiment: Concentration of saturated solution of racemic HCl salt in EtOH, determined by HPLC
Type: physicochemical
Procedure: A saturated solution of racemic HCl salt is prepared by heating 50 g of salt in EtOH (350 ml) to reflux. A clear solution is formed. This is allowed to cool to 40° C. The mixture is seeded with a slurry of racemic HCl salt.
Crystallization is observed. This is allowed to equilibrate overnight. The mixture is filtered into the reaction vessel (preheated to 40° C.). This is heated to 60° C. to ensure complete dissolution, cooled to 40° C. and sampled to determine the concentration by HPLC. This is then cooled to 13° C. in increments of 1° C./5 min. At 13° C. a small amount of crystallisation is observed. A seed sample is also added and this is allowed to equilibrate overnight. A sample is removed for concentration determination at 13° C.

- Concentration of sat. solution at 40° C. (equilibrated at 40° C.): 92200 µg/mL
- Concentration at 13° C. (equilibrated overnight at 13° C.): 69740 µg/mL
SMILES: CC1N=C(N)NC(N(C)C)=N1 (racemic) [A1, 2-amino-3,6-dihydro-4-dimethylamino-6-methyl-1,3,5-triazine]
